Measurements reported in patent US20240400606A1, “SMALL MOLECULE ACTIVATORS OF THE IMMUNE SYSTEM” (THE BOARD OF TRUSTEES OF THE UNIVERSITY OF ILLINOIS, priority 2021, published 2024).

The molecules below were run on whole cell CS levels in MCF-7 (assay: Whole cell cholesterol sulfate quantification, MCF-7). Conditions: MCF-7, 6.25 μM compound, 72 hours.
Type: cell-based, human
Experimental: (§1) General Whole Cell Cholesterol Sulfate Quantification. 60×15 mm tissue culture dishes were seeded with MCF-7 at 2×10^6 cells/dish or T47D at 1×10^6 cells per dish, 5 mL total media volume, and allowed to adhere overnight. Compounds of interest were dissolved in DMSO. Cells were treated with 25 μL 1.25 mM compound of interest stock (6.25 μM final compound concentration, 0.5% final DMSO concentration) or DMSO for 72 hours. To harvest, media was aspirated, and cells were washed once with PBS before detaching with trypsin. Trypsin was quenched with media. Cells were centrifuged at 300 xg for 3 minutes and supernatant was discarded. Cells were resuspended in media and counted using a Countess 3 automated cell counter (Thermo Fisher Scientific). 1.5×10^6 cells were collected, washed twice with 1 mL PBS, then pelleted and stored at −80° C. until lysis. Cell pellets were resuspended in 200 μL cold 70:30 methanol:water and placed on ice. Cell suspension was sonicated on ice (30%, 10 s on, 20 s off, 1 min total) and continued to be incubated on ice for 30 minutes. Lysate was clarified by centrifugation at 14,100 xg at 4° C. for 30 minutes. 100 μL of supernatant was transferred to an empty Eppendorf tube and submitted for LC-MS/MS quantification (UIUC Metabolomics Center), along with 5 mM cholesterol sulfate sodium salt standard.
as §1, with “Time Course Whole Cell” for “General Whole Cell”, “2×10^6 cells/dish per dish,” for “2×10^6 cells/dish or T47D at 1×10^6 cells per dish,”, “DMSO for 0 (harvested immediately), 4, 8, 24, 48, or 72 hours.” for “DMSO for 72 hours.”
Whole Cell Cholesterol Sulfate Quantification with Compound Removal. 60×15 mm tissue culture dishes were seeded with MCF-7 at 2×10^6 cells/dish, 5 mL total media volume, and allowed to adhere overnight. Compounds of interest were dissolved in DMSO. Cells were treated with 25 μL 1.25 mM compound of interest stock (6.25 μM final compound concentration, 0.5% final DMSO concentration) for 0 hours (harvested immediately) or 24 hours. Media was aspirated and replaced with 5 mL fresh media, then cells were either harvested (24 hour time point) or further incubated. To harvest, media was aspirated, and cells were washed once with PBS before detaching with trypsin. Trypsin was quenched with media. Cells were centrifuged at 300 xg for 3 minutes and supernatant was discarded. Cells were resuspended in media and counted using a Countess 3 automated cell counter (Thermo Fisher Scientific). 1.5×10^6 cells were collected, washed twice with 1 mL PBS, then pelleted and stored at −80° C. until lysis. Cell pellets were resuspended in 200 μL cold 70:30 methanol:water and placed on ice. Cell suspension was sonicated on ice (30%, 10 s on, 20 s off, 1 min total) and continued to be incubated on ice for 30 minutes. Lysate was clarified by centrifugation at 14,100 xg at 4° C. for 30 minutes. […]

| Structure (SMILES) | whole cell CS levels vs DMSO |
| --- | --- |
| CN1C(=O)CC[C@@]2(C)C1=CC[C@@H]1[C@@H]2C(=O)C[C@]2(C)C(=O)CC[C@@H]12 [Compound 6, (4aR,4bS,6aS,9aS,9bS)-1,4a,6a-trimethyl-3,4,4a,6,6a,8,9,9a,9b,10-decahydro-1H-indeno[5,4-f]quinoline-2,5,7(4bH)-trione] | not seen |

Same assay, conditions: MCF-7, sub-lethal 0.156 μM, 72 hours

| Structure (SMILES) | whole cell CS levels vs DMSO |
| --- | --- |
| O=CC1(C2(C=O)c3ccccc3-c3ccccc32)c2ccccc2-c2ccccc21 [Raptinal, reference compound] | no significant difference |

The molecules below were run against SULT2B1b (Homo sapiens (Human), UniProt O00204) (assay: LC-MS/MS based in vitro assay (DHEA-sulfate formation)). Conditions: 100 μM compound, 2 hours; mean±s.e.m., n=3.
Type: biochemical
Experimental: LC-MS/MS Based In Vitro Assay. Stock solutions of DHEA (5 mM in DMSO) and compound of interest (5 mM in DMSO) were prepared. […] SULT2B1b was diluted to 1.5 μg/μL in protein storage buffer then down to 0.8 μg/μL in 1× activity assay buffer. 30 μL of 0.8 μg/μL SULT2B1b was added to each reaction. Reactions were incubated for 2 hours at 37° C. with shaking at 250 rpm. To quench, 30 μL reaction mix was added to 30 μL ice cold 0.5% HCl in MeCN, then centrifuged at 13,000 xg at room temperature for 3 min. 50 μL supernatant was transferred to an empty Eppendorf tube and submitted for LC-MS/MS quantification (UIUC Metabolomics Center), along with 5 mM DHEA sulfate standard. Controls: Reaction mix made with DHEA and DMSO in place of compound of interest (DHEA control). […] General LC-MS/MS Quantification Method. Both DHEAS and CS samples were analyzed by 6500 QTRAP (Sciex, Redwood City, CA) liquid chromatography-tandem mass spectrometry. […] The flow rate was 0.3 mL/min. […] The source temperature was 400° C. […] Cholesterol-sulfate and DHEA-sulfate were detected by multiple reaction monitoring (MRM) at m/z 465→97.0 and 367.0→97.0 respectively. Software Analyst 1.7.1 ([…]) was used for data acquisition and analysis.

Sequence of SULT2B1b (O00204 whole entry): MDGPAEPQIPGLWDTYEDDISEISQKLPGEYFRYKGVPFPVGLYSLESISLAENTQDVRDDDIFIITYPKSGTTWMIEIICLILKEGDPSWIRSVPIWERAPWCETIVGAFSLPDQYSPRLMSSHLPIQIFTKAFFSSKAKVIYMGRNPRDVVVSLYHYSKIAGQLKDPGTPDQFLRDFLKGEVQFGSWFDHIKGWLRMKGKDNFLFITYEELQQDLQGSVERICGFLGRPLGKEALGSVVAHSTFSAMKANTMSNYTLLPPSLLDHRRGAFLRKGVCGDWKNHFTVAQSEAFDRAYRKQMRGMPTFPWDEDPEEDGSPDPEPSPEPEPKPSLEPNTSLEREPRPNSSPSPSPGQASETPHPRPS

| inhibition at 100 µM [%] | Structure (SMILES) |
| --- | --- |
| 55 ± 2 | C[C@]12CCC(=O)N(Cc3ccc(F)cc3)C1=CC[C@@H]1[C@@H]2C(=O)C[C@]2(C)C(=O)CC[C@@H]12 [Compound 4, (4aR,4bS,6aS,9aS,9bS)-1-(4-fluorobenzyl)-4a,6a-dimethyl-3,4,4a,6,6a,8,9,9a,9b,10-decahydro-1H-indeno[5,4-f]quinoline-2,5,7(4bH)-trione] |
| 48 ± 2 | C[C@]12CCC(=O)N(Cc3ccccc3)C1=CC[C@@H]1[C@@H]2C(=O)C[C@]2(C)C(=O)CC[C@@H]12 [Compound 5, (4aR,4bS,6aS,9aS,9bS)-1-benzyl-4a,6a-dimethyl-3,4,4a,6,6a,8,9,9a,9b,10-decahydro-1H-indeno[5,4-f]quinoline-2,5,7(4bH)-trione] |
| 69.8 ± 0.5 | C[C@]12CCC(=O)N(Cc3cccc(Cl)c3)C1=CCC1[C@@H]2C(=O)C[C@]2(C)C(=O)CC[C@@H]12 (stereo partly drawn) [Compound 7, (4aR,4bS,6aS,9aS,9bS)-1-(3-chlorobenzyl)-4a,6a-imethy-3,4,4a,6,6a,8,9,9a,9b,10-decahydro-1H-indeno[5,4-f]quinoline-2,5,7(4bH)-trione] |
| 46 ± 1 | C[C@]12CCC(=O)N(Cc3ccccc3Cl)C1=CC[C@@H]1[C@@H]2C(=O)C[C@]2(C)C(=O)CC[C@@H]12 [Compound 8, (4aR,4bS,6aS,9aS,9bS)-1-(2-chlorobenzyl)-4a,6a-dimethyl-3,4,4a,6,6a,8,9,9a,9b,10-decahydro-1H-indeno[5,4-f]quinoline-2,5,7(4bH)-trione] |
| 53 ± 1 | C[C@]12CCC(=O)N(Cc3ccc(Cl)cc3)C1=CC[C@@H]1[C@@H]2CC[C@]2(C)C(=O)CC[C@@H]12 [Compound 9, (4aR,4bS,6aS,9aS,9bR)-1-(4-chlorobenzyl)-4a,6a-dimethyl-3,4,4a,4b,5,6,6a,8,9,9a,9b,10-dodecahydro-1H-indeno[5,4-f]quinoline-2,7-dione] |
| 45 ± 1 | C[C@]12CCC(=O)N(Cc3ccc(Cl)cc3)C1=CC[C@@H]1[C@@H]2C(=O)C[C@@]2(C)[C@H]1CCC21OCCO1 [Compound 10, (4aR,4bS,6aS,9aS,9bS)-1-(4-chlorobenzyl)-4a,6a-dimethyl-1,3,4,4a,4b,6,6a,8,9,9a,9b,10-dodecahydrospiro[indeno[5,4-f]quinoline-7,2′-[1,3]dioxolane]-2,5-dione] |
| 53 ± 1 | C[C@]12CCC(=O)N(Cc3ccc(Br)nc3)C1=CC[C@@H]1[C@@H]2C(=O)C[C@]2(C)C(=O)CC[C@@H]12 [Compound 11, (4aR,4bS,6aS,9aS,9bS)-1-((6-bromopyridin-3-yl)methyl)-4a,6a-dimethyl-3,4,4a,6,6a,8,9,9a,9b,10-decahydro-1H-indeno[5,4-f]quinoline-2,5,7(4bH)-trione] |
| 52 ± 10 | C[C@]12CCC(=O)N(Cc3ccc4ccccc4c3)C1=CC[C@@H]1[C@@H]2C(=O)C[C@]2(C)C(=O)CC[C@@H]12 [Compound 12, (4aR,4bS,6aS,9aS,9bS)-4a,6a-dimethyl-1-(naphthalen-2-ylmethyl)-3,4,4a,6,6a,8,9,9a,9b,10-decahydro-1H-indeno[5,4-f]quinoline-2,5,7(4bH)-trione] |
| 27 ± 2 | C[C@]12CCC(=O)N(CC3CC3)C1=CC[C@@H]1[C@@H]2C(=O)C[C@]2(C)C(=O)CC[C@@H]12 [Compound 13, (4aR,4bS,6aS,9aS,9bS)-1-(cyclopropylmethyl)-4a,6a-dimethyl-3,4,4a, 6,6a, 8,9,9a, 9b,10-decahydro-1H-indeno[5,4-f]quinoline-2,5,7(4bH)-trione] |
| 48 ± 2 | C[C@]12CCC(=O)N(CC3CCCCC3)C1=CC[C@@H]1[C@@H]2C(=O)C[C@]2(C)C(=O)CC[C@@H]12 [Compound 14, (4aR,4bS, 6aS, 9aS, 9bS)-1-(cyclohexylmethyl)-4a, 6a-dimethyl-3,4,4a, 6,6a, 8,9,9a, 9b,10-decahydro-1H-indeno[5,4-f]quinoline-2,5,7(4bH)-trione] |

| Structure (SMILES) | inhibition at 100 µM [%] |
| --- | --- |
| CN1C(=O)CC[C@@]2(C)C1=CC[C@@H]1[C@@H]2C(=O)C[C@]2(C)C(=O)CC[C@@H]12 [Compound 6, (4aR,4bS,6aS,9aS,9bS)-1,4a,6a-trimethyl-3,4,4a,6,6a,8,9,9a,9b,10-decahydro-1H-indeno[5,4-f]quinoline-2,5,7(4bH)-trione] | 8.8 ± 0.4 |

These molecules were tested on free cholesterol levels in MCF-7 (assay: Whole cell cholesterol assay). Conditions: MCF-7, 6.25 μM, 72 hours.
Type: cell-based, human
Experimental: Whole Cell Cholesterol Assay. Assay was run according to manufacturer's instructions. Briefly, 5000 MCF-7 cells were plated in 99 μL media in a 96-well plate and allowed to adhere overnight before DMSO solutions of compounds were added to each well. Final concentration of DMSO in each well is 1%, final volume: 100 μL. At the end of 72 hours, media was aspirated, and cells were washed twice with 100 μL PBS. 50 μL of cholesterol lysis solution was added and cells were incubated for 30 minutes at 37° C. 50 μL of sample was then transferred to a 96-well white walled assay plate. 50 μL of cholesterol detection reagent was added to all wells and incubated at room temperature for 1 hour. Luminescence was read using a SpectraMax M3 plate reader (Molecular Devices). Cholesterol levels were determined by use of a cholesterol standard curve.

| Structure (SMILES) | free cholesterol levels vs DMSO |
| --- | --- |
| CN1C(=O)CC[C@@]2(C)C1=CC[C@@H]1[C@@H]2C(=O)C[C@]2(C)C(=O)CC[C@@H]12 [Compound 6, (4aR,4bS,6aS,9aS,9bS)-1,4a,6a-trimethyl-3,4,4a,6,6a,8,9,9a,9b,10-decahydro-1H-indeno[5,4-f]quinoline-2,5,7(4bH)-trione] | no statistical difference |
